Assay: in vivo
Description: After full validation, the LC-ESI-MS/MS method was used to analyze large batches of beagle dog plasma. […] The corresponding pharmacokinetic parameters were generated by fitting plasma concentration profiles to a non-compartmental model. These are summarized in Table 3, expressed as the mean ± SD (n = 5).
Quantitative analysis was conducted on a 1290 UPLC-photodiode array 6460 triple quadrupole mass spectrometry system (LC-MS/MS, Agilent Technologies, Palo Alto, CA, USA). Analysis was carried out on. Separation of analytes was performed on a reversed phase Agilent Zorbax XDB-C18 HPLC column (2.1 mm × 50 mm, particle size 3.5 μm) with the column oven set to 30 °C. The elution gradient was carried out with a binary solvent system consisting of an aqueous solution of 0.4% v/v formic acid in water (A) and acetonitrile (B) at a flow rate of 0.15 mL/min. Optimized separation was obtained according to a linear gradient (0–2 min, 2% B; 2–4 min, 2–12% B; 4–8 min, 12–20% B; 8–14 min, 20–28% B; […], 28–90% B). MS/MS conditions were as follows: negative ion mode, drying gas (N2) flow rate 8.0 L/min, drying gas temperature 300 °C, declustering potential 150 V, nebulizer pressure 45 psi, ESI Vcap 3500 V, sheath gas temperature 300 °C, sheath gas flow 12 L/min, nozzle voltage 500 V. The mass transition of gastrodin (m/z 331.1→123.0, CE: 3 eV), parishin (m/z 995.4→727.0, CE: 42 eV), parishin B (m/z 727.3→423.0, CE: 20 eV), parishin C (m/z 727.3→423.1, CE: 20 eV), parishin E (m/z 459.3→110.9, CE: 19 eV) and bergenin (m/z 327.0→234.0, CE: 4 eV).
Adult male […] beagle dogs (12 kg ± 0.020 kg) were purchased from Beijing Shahe Bio-Technology (Beijing, China; certificate No. SCXK2014-0007). Before drug administration, the dogs were fasted for 12 h with free access to water. They were maintained on a 12 h light-dark cycle (light on from 6:00 to 18:00 h) at ambient temperature (22–24 °C) with 60% relative humidity. The animals were observed twice daily and body weights were recorded once per day to assess their general health. All experimental protocols on animals were carried out according to the Guidelines of the Committee on the Care and Use of Laboratory Animals of China.
Fifteen beagle dogs were randomly divided into three groups to receive an intragastric dose of tall Gastrodia capsules (0.125, 0.25 and 0.5 g/kg). Capsules were ultrasonically dissolved in pure water and suspended at concentrations of 5, 10 and 20 mg/mL for intragastric administration. […] The HPLC quantitative analysis was based on the previous report with some modification. After administration, serial blood samples (about 2.00 mL) were collected from the foreleg vein […] into heparin-containing capillary tubes at 10, 20, 30, 45, 60, 120, 180, 240, 480, 720 and 1440 min. Blood samples were promptly centrifuged at 5000 rpm for 5 min, and the plasma was separated and stored at −20 °C until analysis.
Plasma samples were thawed to 4 °C before processing. An aliquot of 200 μL of the plasma sample was transferred into an Eppendorf tube, and 1000 μL of ice-cold 1% formic acid methanol containing IS (10 μL, 2.0 μg/mL) was added to precipitate the plasma proteins. Samples were then vortexed for 3 min and centrifuged at 12,000 rpm for 10 min. The supernatant was transferred and evaporated to dryness under a gentle stream of nitrogen at 40 °C. The residue was reconstituted in 200 μL of 5.0% methanol–water, and a 10 μL aliquot was injected for analysis.

[1] = male, beagle, dog, in vivo, po, 0.125 g/kg
[2] = male, beagle, dog, in vivo, po, 0.25 g/kg
[3] = male, beagle, dog, in vivo, po, 0.5 g/kg

Structure (SMILES)	AUC(0-inf) [1] [ng·h/mL]	AUC(0-t) [1] [ng·h/mL]	Cmax [1] [ng/mL]	MRT inf [1] [h]	MRT last [1] [h]	Tmax [1] [h]	half-life [1] [h]	AUC(0-inf) [2] [ng·h/mL]	AUC(0-t) [2] [ng·h/mL]	Cmax [2] [ng/mL]	MRT inf [2] [h]	MRT last [2] [h]	Tmax [2] [h]	half-life [2] [h]	AUC(0-inf) [3] [ng·h/mL]	AUC(0-t) [3] [ng·h/mL]	Cmax [3] [ng/mL]	MRT inf [3] [h]	MRT last [3] [h]	Tmax [3] [h]	further results
O=C(CC(O)(CC(=O)OCc1ccc(O[C@@H]2O[C@H](CO)[C@@H](O)[C@H](O)[C@H]2O)cc1)C(=O)O)OCc1ccc(O[C@@H]2O[C@H](CO)[C@@H](O)[C@H](O)[C@H]2O)cc1 [Parishin C, parishin C]	359 ± 99.3	349 ± 100	107 ± 29.4	2.7 ± 0.28	2.47 ± 0.28	1.35 ± 0.6	1.37 ± 0.18	578 ± 200	567 ± 198	144 ± 55.1	3.31 ± 0.59	3.14 ± 0.54	2 ± 0.71	1.56 ± 0.41	1100 ± 527	1090 ± 523	243 ± 99.6	3.25 ± 0.72	3.18 ± 0.69	2.4 ± 0.55	Mean plasma clearance (CL) (male, beagle, dog, in vivo, po): 16 mL/min/kg; CL (plasma clearance) [1]: 12 ± 3.83 mL/min/kg; CL (plasma clearance) [2]: 15.2 ± 3.83 mL/min/kg; CL (plasma clearance) [3]: 21 ± 17.5 mL/min/kg; half-life [3]: 1.29 ± 0.36 h
O=C(CC(O)(CC(=O)OCc1ccc(OC2OC(CO)C(O)C(O)C2O)cc1)C(=O)OCc1ccc(OC2OC(CO)C(O)C(O)C2O)cc1)OCc1ccc(OC2OC(CO)C(O)C(O)C2O)cc1 (centres unmarked) [Parishin, parishin]	899 ± 299	868 ± 314	388 ± 116	2 ± 0.3	1.8 ± 0.42	1 ± 0.56	1.15 ± 0.18	1520 ± 832	1500 ± 836	462 ± 230	2.65 ± 0.44	2.49 ± 0.4	1.55 ± 0.62	1.38 ± 0.34	3280 ± 1370	3270 ± 1370	969 ± 292	2.5 ± 0.35	2.48 ± 0.36	1.45 ± 0.76	Mean plasma clearance (CL) (male, beagle, dog, in vivo, po): 52.3 mL/min/kg; CL (plasma clearance) [1]: 44.8 ± 16.8 mL/min/kg; CL (plasma clearance) [2]: 59.3 ± 29.2 mL/min/kg; CL (plasma clearance) [3]: 53 ± 27.5 mL/min/kg; half-life [3]: 1.05 ± 0.16 h
O=C(O)CC(O)(CC(=O)OCc1ccc(OC2OC(CO)C(O)C(O)C2O)cc1)C(=O)OCc1ccc(OC2OC(CO)C(O)C(O)C2O)cc1 (centres unmarked) [Parishin B, parishin B]	1570 ± 533	1550 ± 530	526 ± 143	2.32 ± 0.25	2.25 ± 0.26	1.25 ± 0.69	1.08 ± 0.11	2720 ± 1140	2700 ± 1130	746 ± 320	2.84 ± 0.44	2.78 ± 0.42	1.8 ± 0.45	1.18 ± 0.29	4720 ± 2330	4700 ± 2330	1220 ± 562	2.8 ± 0.42	2.76 ± 0.44	2 ± 0.71	Mean plasma clearance (CL) (male, beagle, dog, in vivo, po): 14.5 mL/min/kg; CL (plasma clearance) [1]: 12 ± 6.5 mL/min/kg; CL (plasma clearance) [2]: 13 ± 3.83 mL/min/kg; CL (plasma clearance) [3]: 18.5 ± 14 mL/min/kg; half-life [3]: 1.17 ± 0.22 h
OCc1ccc(O[C@@H]2O[C@H](CO)[C@@H](O)[C@H](O)[C@H]2O)cc1 [Gastrodin, gastrodin]	5080 ± 2110	4890 ± 2060	1200 ± 120	3.33 ± 1.09	2.98 ± 1.01	1.1 ± 0.52	1.86 ± 0.67	9170 ± 1790	8830 ± 1860	2050 ± 495	3.8 ± 0.28	3.46 ± 0.29	1.75 ± 0.9	1.9 ± 0.26	17600	17000	3760 ± 778	3.93 ± 0.99	3.54 ± 0.69	2 ± 0.71	Time after administration at which detected in plasma (beagle dog plasma, intragastric capsules, all three dosage levels): 10 min; CL (plasma clearance) (beagle dog plasma, intragastric tall Gastrodia capsules, high dose 0.5 g/kg, mean ± SD, n = 5): 3.5 ± 0.83 mL/min/kg; CL (plasma clearance) (beagle dog plasma, intragastric tall Gastrodia capsules, low dose 0.125 g/kg, mean ± SD, n = 5): 3.5 ± 2.17 mL/min/kg; CL (plasma clearance) (beagle dog plasma, intragastric tall Gastrodia capsules, medium dose 0.25 g/kg, mean ± SD, n = 5): 3.33 ± 0.67 mL/min/kg; Mean plasma clearance (CL) (beagle dogs, mean over the three intragastric dose levels of tall Gastrodia capsules): 3.3 mL/min/kg; half-life [3]: 2.09 ± 0.68 h
